Source: patent publication US9278962B2 (Cytokinetics, Inc., priority 2011, dated 2016)

System: rabbit skeletal myofibrils (approximately 90% fast fibers)
Experiment: Activation of fast skeletal myofibrils (PUMA coupled-enzyme ATPase assay, AC1.4)
Format: biochemical
Conditions: concentration at which the compound increased enzymatic activity by 40%, calcium at pCa25

Structure (SMILES)	Mean AC1.4 (Table 3)	Mean AC1.4 (Table 2)
Fc1cccnc1[C@]1(CNc2nnc(-c3ccccn3)s2)C[C@@H](F)C1 [N-((3-fluoro-1-(3-fluoropyridin-2-yl)cyclobutyl)methyl)-5-(pyridin-2-yl)-1,3,4-thiadiazol-2-amine]	B (B=1-10 uM)	–
Cc1ccsc1-c1nnc(NC[C@]2(c3ncccc3F)C[C@@H](F)C2)s1 [N-(((cis)-3-fluoro-1-(3-fluoropyridin-2-yl)cyclobutyl)methyl)-5-(3-methylthiophen-2-yl)-1,3,4-thiadiazol-2-amine]	B (B=1-10 uM)	–
Cc1ccc(-c2nnc(NC[C@]3(c4ncccc4F)C[C@@H](F)C3)s2)s1 [N-(((cis)-3-fluoro-1-(3-fluoropyridin-2-yl)cyclobutyl)methyl)-5-(5-methylthiophen-2-yl)-1,3,4-thiadiazol-2-amine]	D (D=>20 uM)	–
Cc1ccsc1-c1nnc(NC[C@]2(c3ncccc3F)C[C@H](F)C2)s1 [N-(((trans)-3-fluoro-1-(3-fluoropyridin-2-yl)cyclobutyl)methyl)-5-(3-methylthiophen-2-yl)-1,3,4-thiadiazol-2-amine]	B (B=1-10 uM)	–
Cc1ccc(-c2nnc(NC[C@]3(c4ncccc4F)C[C@H](F)C3)s2)s1 [N-(((trans)-3-fluoro-1-(3-fluoropyridin-2-yl)cyclobutyl)methyl)-5-(5-methylthiophen-2-yl)-1,3,4-thiadiazol-2-amine]	B (B=1-10 uM)	–
CC(C)(CNc1nc(CCCNC(=O)CO)ns1)c1ccc(F)cc1 [N-[3-(5-{[2-(4-fluorophenyl)-2-methylpropyl]amino}(1,2,4-thiadiazol-3-yl))propyl]-2-hydroxyacetamide]	–	B (B=1-10 uM)
COC(=O)NCCCc1nsc(NCC(C)(C)c2ccc(F)cc2)n1 [N-[3-(5-{[2-(4-fluorophenyl)-2-methylpropyl]amino}(1,2,4-thiadiazol-3-yl))propyl]methoxycarboxamide]	–	B (B=1-10 uM)
CC(=O)NCCCc1nsc(NCC(C)(C)c2ccc(F)cc2)n1 [N-[3-(5-{[2-(4-fluorophenyl)-2-methylpropyl]amino}-1,2,4-thiadiazol-3-yl)propyl]acetamide]	–	C (C=10-20 uM)
CC(C)(CNc1nc(CNC(=O)CO)ns1)c1ccc(F)cc1 [N-[(5-{[2-(4-fluorophenyl)-2-methylpropyl]amino}(1,2,4-thiadiazol-3-yl))methyl]-2-hydroxyacetamide]	–	B (B=1-10 uM)
COC(=O)NCc1nsc(NCC(C)(C)c2ccc(F)cc2)n1 [N-[(5-{[2-(4-fluorophenyl)-2-methylpropyl]amino}(1,2,4-thiadiazol-3-yl))methyl]methoxycarboxamide]	–	B (B=1-10 uM)
CC(=O)NCc1nsc(NCC(C)(C)c2ccc(F)cc2)n1 [N-[(5-{[2-(4-fluorophenyl)-2-methylpropyl]amino}-1,2,4-thiadiazol-3-yl)methyl]acetamide]	–	C (C=10-20 uM)
COc1cccc(Cc2nsc(NCCc3ccc(Cl)cc3Cl)n2)c1 [[2-(2,4-dichlorophenyl)ethyl]{3-[(3-methoxyphenyl)methyl](1,2,4-thiadiazol-5-yl)}amine]	–	C (C=10-20 uM)
Cc1ccc(Cc2nsc(NCCc3ccc(Cl)cc3Cl)n2)cc1 [[2-(2,4-dichlorophenyl)ethyl]{3-[(4-methylphenyl)methyl](1,2,4-thiadiazol-5-yl)}amine]	–	D (D=>20 uM)
Cc1ccc(Cc2nsc(NCCc3c(Cl)cccc3Cl)n2)cc1 [[2-(2,6-dichlorophenyl)ethyl]{3-[(4-methylphenyl)methyl](1,2,4-thiadiazol-5-yl)}amine]	–	D (D=>20 uM)
COc1cccc(Cc2nsc(NCCc3ccccc3Cl)n2)c1 [[2-(2-chlorophenyl)ethyl]{3-[(3-methoxyphenyl)methyl](1,2,4-thiadiazol-5-yl)}amine]	–	D (D=>20 uM)
Fc1ccc(Cc2nsc(NCCc3ccccc3Cl)n2)cc1 [[2-(2-chlorophenyl)ethyl]{3-[(4-fluorophenyl)methyl](1,2,4-thiadiazol-5-yl)}amine]	–	D (D=>20 uM)
Cc1ccc(Cc2nsc(NCCc3ccccc3Cl)n2)cc1 [[2-(2-chlorophenyl)ethyl]{3-[(4-methylphenyl)methyl](1,2,4-thiadiazol-5-yl)}amine]	–	D (D=>20 uM)
COc1cccc(Cc2nsc(NCCc3ccc(Cl)c(Cl)c3)n2)c1 [[2-(3,4-dichlorophenyl)ethyl]{3-[(3-methoxyphenyl)methyl](1,2,4-thiadiazol-5-yl)}amine]	–	B (B=1-10 uM)
Clc1ccc(Cc2nsc(NCCc3ccc(Cl)c(Cl)c3)n2)cc1 [[2-(3,4-dichlorophenyl)ethyl]{3-[(4-chlorophenyl)methyl](1,2,4-thiadiazol-5-yl)}amine]	–	C (C=10-20 uM)
Cc1ccc(Cc2nsc(NCCc3ccc(Cl)c(Cl)c3)n2)cc1 [[2-(3,4-dichlorophenyl)ethyl]{3-[(4-methylphenyl)methyl](1,2,4-thiadiazol-5-yl)}amine]	–	B (B=1-10 uM)
COc1cccc(Cc2nsc(NCCc3ccc(F)c(F)c3)n2)c1 [[2-(3,4-difluorophenyl)ethyl]{3-[(3-methoxyphenyl)methyl](1,2,4-thiadiazol-5-yl)}amine]	–	B (B=1-10 uM)

Structure (SMILES)	Mean AC1.4 (Table 3)	Mean AC1.4 (Table 2)
Fc1ccc(Cc2nsc(NCCc3ccc(F)c(F)c3)n2)cc1 [[2-(3,4-difluorophenyl)ethyl]{3-[(4-fluorophenyl)methyl](1,2,4-thiadiazol-5-yl)}amine]	–	C (C=10-20 uM)
COc1cccc(Cc2nsc(NCCc3cc(F)cc(F)c3)n2)c1 [[2-(3,5-difluorophenyl)ethyl]{3-[(3-methoxyphenyl)methyl](1,2,4-thiadiazol-5-yl)}amine]	–	D (D=>20 uM)
COc1cccc(Cc2nsc(NCCc3cccc(Cl)c3)n2)c1 [[2-(3-chlorophenyl)ethyl]{3-[(3-methoxyphenyl)methyl](1,2,4-thiadiazol-5-yl)}amine]	–	C (C=10-20 uM)
Clc1ccc(Cc2nsc(NCCc3cccc(Cl)c3)n2)cc1 [[2-(3-chlorophenyl)ethyl]{3-[(4-chlorophenyl)methyl](1,2,4-thiadiazol-5-yl)}amine]	–	D (D=>20 uM)
Cc1ccc(Cc2nsc(NCCc3cccc(Cl)c3)n2)cc1 [[2-(3-chlorophenyl)ethyl]{3-[(4-methylphenyl)methyl](1,2,4-thiadiazol-5-yl)}amine]	–	B (B=1-10 uM)
COc1cccc(Cc2nsc(NCCc3cccc(F)c3)n2)c1 [[2-(3-fluorophenyl)ethyl]{3-[(3-methoxyphenyl)methyl](1,2,4-thiadiazol-5-yl)}amine]	–	C (C=10-20 uM)
Nc1ccc(CCNc2nc(Cc3ccc(F)cc3)ns2)cc1 [[2-(4-aminophenyl)ethyl]{3-[(4-fluorophenyl)methyl](1,2,4-thiadiazol-5-yl)}amine]	–	D (D=>20 uM)
CC(C)Cc1nsc(NCC(C)(C)c2ccc(Cl)cc2)n1 [[2-(4-chlorophenyl)-2-methylpropyl][3-(2-methylpropyl)(1,2,4-thiadiazol-5-yl)]amine]	–	B (B=1-10 uM)
COc1cccc(Cc2nsc(NCC(C)(C)c3ccc(Cl)cc3)n2)c1 [[2-(4-chlorophenyl)-2-methylpropyl]{3-[(3-methoxyphenyl)methyl](1,2,4-thiadiazol-5-yl)}amine]	–	A (A=<1 uM)
CC(C)(CNc1nc(Cc2ccc(F)cc2)ns1)c1ccc(Cl)cc1 [[2-(4-chlorophenyl)-2-methylpropyl]{3-[(4-fluorophenyl)methyl](1,2,4-thiadiazol-5-yl)}amine]	–	A (A=<1 uM)
COc1ccc(Cc2nsc(NCC(C)(C)c3ccc(Cl)cc3)n2)cc1 [[2-(4-chlorophenyl)-2-methylpropyl]{3-[(4-methoxyphenyl)methyl](1,2,4-thiadiazol-5-yl)}amine]	–	A (A=<1 uM)
CC(Cc1ccc(Cl)cc1)Nc1nc(Cc2ccc(F)cc2)ns1 (centres unmarked) [[2-(4-chlorophenyl)-isopropyl]{3-[(4-fluorophenyl)methyl](1,2,4-thiadiazol-5-yl)}amine]	–	D (D=>20 uM)
COc1cccc(Cc2nsc(NCCc3ccc(Cl)cc3)n2)c1 [[2-(4-chlorophenyl)ethyl]{3-[(3-methoxyphenyl)methyl](1,2,4-thiadiazol-5-yl)}amine]	–	B (B=1-10 uM)
Clc1ccc(CCNc2nc(Cc3ccc(Cl)cc3)ns2)cc1 [[2-(4-chlorophenyl)ethyl]{3-[(4-chlorophenyl)methyl](1,2,4-thiadiazol-5-yl)}amine]	–	C (C=10-20 uM)
Fc1ccc(Cc2nsc(NCCc3ccc(Cl)cc3)n2)cc1 [[2-(4-chlorophenyl)ethyl]{3-[(4-fluorophenyl)methyl](1,2,4-thiadiazol-5-yl)}amine]	–	B (B=1-10 uM)
Cc1ccc(Cc2nsc(NCCc3ccc(Cl)cc3)n2)cc1 [[2-(4-chlorophenyl)ethyl]{3-[(4-methylphenyl)methyl](1,2,4-thiadiazol-5-yl)}amine]	–	C (C=10-20 uM)
COc1cccc(Cc2nsc(NCC(C)c3ccc(Cl)cc3)n2)c1 (centres unmarked) [[2-(4-chlorophenyl)propyl]{3-[(3-methoxyphenyl)methyl](1,2,4-thiadiazol-5-yl)}amine]	–	A (A=<1 uM)
CC(CNc1nc(Cc2ccc(F)cc2)ns1)c1ccc(Cl)cc1 (centres unmarked) [[2-(4-chlorophenyl)propyl]{3-[(4-fluorophenyl)methyl](1,2,4-thiadiazol-5-yl)}amine]	–	B (B=1-10 uM)
CC(C)(CNc1nc(-c2ccccn2)ns1)c1ccc(F)cc1 [[2-(4-fluorophenyl)-2-methylpropyl](3-(2-pyridyl)(1,2,4-thiadiazol-5-yl))amine]	–	B (B=1-10 uM)
CC(C)(CNc1nc(-c2cccnc2)ns1)c1ccc(F)cc1 [[2-(4-fluorophenyl)-2-methylpropyl](3-(3-pyridyl)(1,2,4-thiadiazol-5-yl))amine]	–	B (B=1-10 uM)
